From US20260248763A1 (BIO GENUINE (SHANGHAI) BIOTECH CO., LTD, priority 2023, published 2026)

Key:
OTR = biological target: T1, OTR (Homo sapiens, UniProt P30559); test: Ca2+ mobilization in cells stably expressing OTR (FLIPR, antagonist mode); type: cell-based; details: OTR/HEK293 stably transfected cell line
T1 construct: expressed in transfected cells; host or cells: OTR/HEK293 stably transfected cell line
T1 sequence (P30559 1-389): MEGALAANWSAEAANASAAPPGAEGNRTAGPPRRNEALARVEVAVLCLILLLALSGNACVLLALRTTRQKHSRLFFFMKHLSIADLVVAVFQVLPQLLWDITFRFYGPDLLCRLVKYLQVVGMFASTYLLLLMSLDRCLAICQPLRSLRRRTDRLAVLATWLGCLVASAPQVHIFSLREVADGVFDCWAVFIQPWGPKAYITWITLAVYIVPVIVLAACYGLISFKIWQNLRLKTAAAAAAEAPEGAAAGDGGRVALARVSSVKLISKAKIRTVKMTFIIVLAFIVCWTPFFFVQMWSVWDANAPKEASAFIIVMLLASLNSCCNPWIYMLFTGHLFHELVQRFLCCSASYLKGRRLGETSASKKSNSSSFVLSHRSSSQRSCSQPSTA
How it was run: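 Antagonist mode: test compounds in 10-point 3-fold series were added on FLIPR to Fluo-4-loaded HEK293 cells stably expressing OTR, followed by reference agonist at its EC80, determined beforehand. The Max-Min calcium fluorescence response was fitted in Prism.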

V1aR = biological target: T2, V1aR (Homo sapiens, UniProt P37288); test: Ca2+ mobilization in cells stably expressing V1aR (FLIPR, antagonist mode); type: cell-based; details: V1a-CHO stably transfected cell line
T2 construct: expressed in transfected cells; host or cells: V1a-CHO stably transfected cell line
Text: Test Example 2. Determination of the Effect of the Compound of the Present Disclosure on Ca^2+ Mobilization in Cells Stably Expressing V1aR
To measure the antagonistic effect of the compound of the present disclosure on V1aR activity expressed in the V1a-CHO stably transfected cell line.
• F-12 (Hyclone, SH30026.01) • FLIPR CALCIUM 6 ASSAY KIT (Molecul Device, R8191) • Fetal Bovine Serum (FBS) (AusGeneX, FBS500-S) • Hygromycin B (Solarbio, H8080-1g) • DMSO (Sigma, D4540) • HBSS (Gibco 14025-092) • Probenecid (MCE, HY—B0545) • 0.36 mL 96 Round V-bottom Deep Well Plates for Laboratory (Biaosen P-0.36-BSA-96) • 384-well conical bottom polypropylene plate (Nunc, 264573) • Corning® 384-well Flat Clear Bottom Black Polystyrene TC-treated Microplates (Corning 3764)
• Biological safety cabinet (ECSO, AC2-6S1-TC) • Carbon dioxide cell incubator (ECSO, CCI-170B-8) • Inverted microscope (Olympus, CKX53) • Microplate low-speed centrifuge (Xiangzhi, TD5B) • FLIPR® Penta (Molecul Device, 5.0)
• 1. Cell plating: V1a-CHO cells were digested and harvested, resuspended and counted, and then inoculated into a 384-well cell plate at a density of: 1.2×10^4 cells/25 μL/well. The cell plate was then incubated in an incubator at 37° C. with 5% CO2 for about 16-20 h. • 2. The next day: after preparing Assay Buffer, 20× Component A was thawed to room temperature, diluted with Assay buffer to 1× loading buffer, and placed at room temperature for later use. • 3. The medium was removed from the cell plate, and 40 μL of 1× loading buffer was quickly added to each well. After centrifugation, the cell plate was incubated at 37° C. in the dark for 120 minutes. • 4. The serially diluted positive compound, serially diluted test compound, and agonist working solution were formulated. After mixing the serially diluted positive compound/serially diluted test compound with the agonist at a 1:1 ratio, 20 μL per well was transferred to a 384-well compound source plate. • 5. The cell plate, agonist source plate, and pipette tips were placed into their respective positions in the FLIPR instrument. Using FLIPR Tetra, 10 μL of the diluted agonist from Step 4 was added to each test well, and the data were collected at a wavelength of 515 nm-575 nm. • 6. The signal values were plotted against the compound concentrations, and the curve fitting and IC50 calculation were performed using the nonlinear regression method of GraphPad Prism software.

T2 sequence (P37288 whole entry, species assumed): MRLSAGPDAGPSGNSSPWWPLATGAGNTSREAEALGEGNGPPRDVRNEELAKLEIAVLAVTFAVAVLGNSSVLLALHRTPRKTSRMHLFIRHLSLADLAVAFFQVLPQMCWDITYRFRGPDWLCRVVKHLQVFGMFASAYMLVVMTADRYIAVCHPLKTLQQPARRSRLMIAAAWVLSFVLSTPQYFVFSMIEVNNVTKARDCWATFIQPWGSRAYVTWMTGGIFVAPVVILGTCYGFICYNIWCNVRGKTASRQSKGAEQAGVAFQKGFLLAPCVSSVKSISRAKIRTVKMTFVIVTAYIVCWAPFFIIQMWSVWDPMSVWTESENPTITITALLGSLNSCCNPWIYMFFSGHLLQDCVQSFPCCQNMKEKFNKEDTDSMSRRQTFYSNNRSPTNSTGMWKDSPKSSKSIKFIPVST

Structure (SMILES) | IC50 (OTR) | IC50 (V1aR)
CO/N=C1/C[C@@H](CO)N(C(=O)c2ccc(-c3cccc(C#N)c3C)cc2C)C1 [Example A0241, 3-(4-[(2S,4Z)-2-(Hydroxymethyl)-4-(methoxyimino)pyrrolidine-1-carbonyl]-3-methylphenyl)-2-methylbenzonitrile] | 0.0203 µM | 6.13 µM
CO/N=C1/C[C@@H](CO)N(C(=O)c2ccc(-c3cccc(C#N)c3C)c(OC)c2)C1 [Example A0242, (S,Z)-4′-(2-(Hydroxymethyl)-4-(methoxyimino)pyrrolidine-1-carbonyl)-2′-methoxy-2-methyl-[1,1′-biphenyl]-3-carbonitrile] | 0.0108 µM | 1.55 µM
CO/N=C1/C[C@@H](CO)N(C(=O)c2ccc(-c3cccc(C#N)c3C)cc2OC)C1 [Example A0243] | 0.0341 µM | 7.36 µM
CO/N=C1/C[C@@H](CO)N(C(=O)c2ccc(-c3cccc(C#N)c3C)c(Cl)c2)C1 [Example A0246, 3-(2-Chloro-4-[(2S,4Z)-2-(hydroxymethyl)-4-(methoxyimino)pyrrolidine-1-carbonyl]phenyl)-2-methylbenzonitrile] | 0.0241 µM | 1.85 µM
CO/N=C1\CN(C(=O)c2ccc(-c3ccccc3C)cc2)[C@](C)(CO)C1 [Example C0021, (S, Z)-(2-(Hydroxymethyl)-4-(methoxyimino)-2-methylpyrrolidin-1-yl)(2′-methyl-[1,1′-biphenyl]-4-yl)methanone] | 0.074 µM | 0.862 µM
CO/N=C1\C[C@@H](CO)N(C(=O)c2ccc(-c3cccc(C)c3C)cc2)C1 [Example C0035, (S,E)-(2′,3′-Dimethyl-[1,1′-biphenyl]-4-yl)(2-(hydroxymethyl)-4-(methoxyimino)pyrrolidin-1-yl)methanone] | 0.0812 µM | 0.661 µM
CO/N=C1/C[C@@H](CO)N(C(=O)c2ccc(-c3cccc(C)c3C)cc2)C1 [Example C0036, (S,Z)-(2′,3′-Dimethyl-[1,1′-biphenyl]-4-yl)(2-(hydroxymethyl)-4-(methoxyimino)pyrrolidin-1-yl)methanone] | 0.0321 µM | 0.79 µM
CO/N=C1/C[C@@H](CO)N(C(=O)c2ccc(-c3cccc(C)c3C)cc2OC)C1 [Example C0038, (S,Z)-(2-(Hydroxymethyl)-4-(methoxyimino)pyrrolidin-1-yl)(3-methoxy-2′,3′-dimethyl-[1,1′-biphenyl]-4-yl)methanone] | 0.0135 µM | 1.37 µM
CO/N=C1/C[C@@H](CO)N(C(=O)c2cnc(-c3cccc(Cl)c3C)cn2)C1 [Example C0041, (S, Z)-(5-(3-Chloro-2-methylphenyl)pyrazin-2-yl)(2-(hydroxymethyl)-4-(methoxyimino)pyrrolidin-1-yl)methanone] | 0.0493 µM | 1.75 µM
CO/N=C1/C[C@@H](CO)N(C(=O)c2ccc(-c3ccccc3C)cc2C)C1 [Example C0044, (S, Z)-(2′,3-Dimethyl-[1,1′-biphenyl]-4-yl)(2-(hydroxymethyl)-4-(methoxyimino)pyrrolidin-1-yl)methanone] | 0.0785 µM | 5.51 µM
CO/N=C1/C[C@@H](CO)N(C(=O)c2ccc(-c3cccc(C)c3C)cc2C)C1 [Example C0045, (S, Z)-(2-(Hydroxymethyl)-4-(methoxyimino)pyrrolidin-1-yl)(3-methyl-2′,3′-dimethyl-[1,1′-biphenyl]-4-yl)methanone] | 0.016 µM | 3.5 µM
CO/N=C1/C[C@@H](CO)N(C(=O)c2ccc(-c3ccccc3C)c(C)c2)C1 [Example C0046, (S, Z)-(2′,2-Dimethyl-[1,1′-biphenyl]-4-yl)(2-(hydroxymethyl)-4-(methoxyimino)pyrrolidin-1-yl)methanone] | 0.0221 µM | 1.85 µM
CO/N=C1/C[C@@H](CO)N(C(=O)c2ccc(-c3cccc(C)c3C)c(C)c2)C1 [Example C0047, (S, Z)-(2,2′,3′-Trimethyl-[1,1′-biphenyl]-4-yl)(2-(hydroxymethyl)-4-(methoxyimino)pyrrolidin-1-yl)methanone] | 0.0112 µM | 2.4 µM
CO/N=C1/C[C@@H](CO)N(C(=O)c2ccc(-c3cccc(Cl)c3C)cc2)C1 [Example C0056, (S, Z)-(3′-Chloro-2′-methyl-[1,1′-biphenyl]-4-yl)(2-(hydroxymethyl)-4-(methoxyimino)pyrrolidin-1-yl)methanone] | 0.0102 µM | 2.76 µM
CO/N=C1/C[C@@H](CO)N(C(=O)c2ccc(-c3cccc(C(F)(F)F)c3C)cc2)C1 [Example C0060, (S,Z)-(2-(Hydroxymethyl)-4-(methoxyimino)pyrrolidin-1-yl)(2′-methyl-3′-(trifluoromethyl)-[1,1′-biphenyl]-4-yl)methanone] | 0.0179 µM | 3.21 µM
CO/N=C1/C[C@@H](CO)N(C(=O)c2ccc(-c3cccc(C)c3C)c3c2OCO3)C1 [Example C0062, (S, Z)-(7-(2,3-Dimethylphenyl)benzo[d][1,3]dioxol-4-yl)(2-(hydroxymethyl)-4-(methoxyimino)pyrrolidin-1-yl)methanone] | 0.0106 µM | 2.74 µM
CO/N=C1/C[C@@H](CO)N(C(=O)c2ccc(-c3cccc(C)c3C)c(OC)c2)C1 [Example C0064, (S, Z)-(2-(Hydroxymethyl)-4-(methoxyimino)pyrrolidin-1-yl)(2-methoxy-2′,3′-dimethyl-[1,1′-biphenyl]-4-yl)methanone] | 0.011 µM | 0.584 µM
CO/N=C1/C[C@@H](CO)N(C(=O)c2ccc(-c3cccc(OC)c3C)cc2)C1 [Example C0066, (S, Z)-(2-(Hydroxymethyl)-4-(methoxyimino)pyrrolidin-1-yl)(3′-methoxy-2′-methyl-[1,1′-biphenyl]-4-yl)methanone] | 0.0729 µM | 2.16 µM
CO/N=C1/C[C@@H](CO)N(C(=O)c2ccc(-c3cccc(C)c3C)c(OC)n2)C1 [Example C0073, (S, Z)-(5-(2,3-Dimethylphenyl)-6-methoxypyridin-2-yl)(2-(hydroxymethyl)-4-(methoxyimino)pyrrolidin-1-yl)methanone] | 0.0422 µM | 5.03 µM
CO/N=C1/C[C@@H](CO)N(C(=O)c2ccc(-c3ccc(C#N)c(C)c3C)cc2)C1 [Example C0075, (S, Z)-4′-(2-(Hydroxymethyl)-4-(methoxyimino)pyrrolidine-1-carbonyl)-2,3-dimethyl-[1,1′-biphenyl]-4-carbonitrile] | 0.0468 µM | 20 µM
CO/N=C1/C[C@@H](CO)N(C(=O)c2ccc(-c3cccc(C(F)F)c3C)cc2)C1 [Example C0079, (S, Z)-(3′-(Difluoromethyl)-2′-methyl-[1,1′-biphenyl]-4-yl)(2-(hydroxymethyl)-4-(methoxyimino)pyrrolidin-1-yl)methanone] | 0.0277 µM | 0.93 µM
CO/N=C1/C[C@@H](CO)N(C(=O)c2ccc(-c3cccc(C)c3C)c3c2CCC3)C1 [Example C0083, (S,Z)-(7-(2,3-Dimethylphenyl)-2,3-dihydro-1H-inden-4-yl)(2-(hydroxymethyl)-4-(methoxyimino)pyrrolidin-1-yl)methanone] | 0.0111 µM | 2.92 µM
CO/N=C1/C[C@@H](CO)N(C(=O)c2ccc(-c3cccc(C(F)F)c3C)c3c2OCO3)C1 [Example C0118, (S, Z)-(7-(3-(Difluoromethyl)-2-methylphenyl)benzo[d][1,3]dioxolan-4-yl)(2-(hydroxymethyl)-4-(methoxyimino)pyrrolidin-1-yl)methanone] | 0.0329 µM | 1.14 µM
